Data set [1] in a line: Acute toxicity in BALB/c nude mouse assessed as heart damage at 200 mg/kg, po administered twice daily for 4 weeks by H and E staining based optical microscopic analysis. As to conditions: in vivo, 672 h. The class given is organism-based.
A short description of data set [2]: Acute toxicity in BALB/c nude mouse assessed as liver damage at 200 mg/kg, po administered twice daily for 4 weeks by H and E staining based optical microscopic analysis. It counts as organism-based. As to conditions: in vivo, 672 h.
Data set [3] relates to HCT-116. Nature of the data set: Antiproliferative activity against human HCT116 cells assessed as reduction in cell viability incubated for 72 hrs by MTT assay. The class given is functional, cell-based. As to conditions: HCT-116, 72 h.
A short description of data set [4]: Distribution coefficient, logD of the compound at pH 7.4 by LC-MS based shake-flask method. It counts as physicochemical. As to conditions: octanol/water, read-out: logD.
Data set [5] can be described thus: Intrinsic aqueous solubility of compound at pH 7.4 by LC-MS based shake-flask method. The class given is physicochemical. As to conditions: read-out: Intrinsic_solubility.
A short description of data set [6]: Metabolic stability in human liver microsomes assessed as clearance at 10 uM preincubated for 5 mins followed by NADPH addition by LC-MS/MS analysis. It counts as ADME, Microsome. As to conditions: read-out: CLH.
Data set [7] is described as follows: Half life in Sprague-Dawley rat at 5 mg/kg, iv measured upto 72 hrs by LC-MS/MS analysis. It counts as ADME, organism-based. As to conditions: in vivo.
Data set [8] can be described thus: Cmax in Sprague-Dawley rat at 200 mg/kg, po measured upto 72 hrs by LC-MS/MS analysis. It counts as ADME, organism-based. Set-up: route oral, dose 200 mg/kg, time <=72. As to conditions: in vivo.
A short description of data set [9]: AUC(0 to t) in Sprague-Dawley rat at 5 mg/kg, iv measured upto 72 hrs by LC-MS/MS analysis. It counts as ADME, organism-based. Set-up: route intravenous, dose 5 mg/kg, time <=72. As to conditions: in vivo.
Data set [10] can be described thus: AUC(0 to infinity) in Sprague-Dawley rat at 200 mg/kg, po measured upto 72 hrs by LC-MS/MS analysis. More on the design: route oral, dose 200 mg/kg, time <=72. It counts as ADME, organism-based. As to conditions: in vivo, 72 h.
Data set [11] in a line: Oral bioavailability in Sprague-Dawley rat at 200 mg/kg measured upto 72 hrs by LC-MS/MS analysis. The class given is ADME, organism-based. As to conditions: in vivo.
Data set [12] relates to HCT-116. Nature of the data set: Antineoplastic activity against human HCT-116 cells xenografted in po dosed BALB/c nude mouse administered twice daily measured after 28 days. It counts as functional, organism-based. As to conditions: dose 200.0 mg/kg, time 28.0 day.
In data set [13] the test system is HCT-116. Nature of the data set: Antitumor activity against human HCT-116 cells xenografted in BALB/c nude mouse assessed as large areas of necrosis at 200 mg/kg, po administered twice daily measured after 28 days by H and E staining based optical microscopic analysis. It counts as functional, organism-based. As to conditions: time 28.0 day.
The nature of data set [14]: Cmax in BALB/c nude mouse plasma xenografted with human HCT-116 cells at 200 mg/kg, po administered twice daily for 28 days. The class given is ADME, organism-based. More on the design: route oral, time 28 day, dose 200 mg/kg.
Data set [15] is described as follows: Acute toxicity in BALB/c nude mouse assessed as lung damage at 200 mg/kg, po administered twice daily for 4 weeks by H and E staining based optical microscopic analysis. It counts as organism-based. As to conditions: in vivo, 672 h.
Data set [16] concerns Mus musculus. Nature of the data set: Induction of ROS generation in BALB/c mouse xenografted with human HCT-116 cells at 200 mg/kg, po. It counts as functional, organism-based.
The target in data set [17] is T1, Glutaminase kidney isoform, mitochondrial (Mus musculus) (UniProt D3Z7P3).
T1 sequence (whole entry): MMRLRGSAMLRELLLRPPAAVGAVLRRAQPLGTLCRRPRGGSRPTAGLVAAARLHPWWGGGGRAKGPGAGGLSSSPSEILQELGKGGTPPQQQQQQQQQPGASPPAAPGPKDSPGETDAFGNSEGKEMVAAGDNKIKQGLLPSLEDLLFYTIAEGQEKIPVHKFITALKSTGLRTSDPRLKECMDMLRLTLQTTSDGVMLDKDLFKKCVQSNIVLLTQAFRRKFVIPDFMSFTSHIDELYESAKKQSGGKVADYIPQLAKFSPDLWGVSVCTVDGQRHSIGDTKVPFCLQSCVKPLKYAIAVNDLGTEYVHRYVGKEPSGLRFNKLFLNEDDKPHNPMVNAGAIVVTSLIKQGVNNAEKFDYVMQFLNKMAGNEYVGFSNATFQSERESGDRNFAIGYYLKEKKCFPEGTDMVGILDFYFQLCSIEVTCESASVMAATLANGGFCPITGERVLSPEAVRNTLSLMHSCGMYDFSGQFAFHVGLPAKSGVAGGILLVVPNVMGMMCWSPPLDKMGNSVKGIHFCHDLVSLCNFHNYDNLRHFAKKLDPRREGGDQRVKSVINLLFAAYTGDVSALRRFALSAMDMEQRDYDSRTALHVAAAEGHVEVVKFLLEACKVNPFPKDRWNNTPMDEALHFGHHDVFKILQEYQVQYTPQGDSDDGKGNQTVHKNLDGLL
Put plainly: In vivo inhibition of GLS1 in BALB/c mouse xenografted with human HCT-116 cells assessed as reduction in glutamate level at 200 mg/kg, po. The class given is functional, organism-based.

In data set [18] the target is T1, Glutaminase kidney isoform, mitochondrial (Mus musculus). Nature of the data set: In vivo inhibition of GLS1 in BALB/c mouse xenografted with human HCT-116 cells assessed as reduction in malate level at 200 mg/kg, po. It counts as functional, organism-based.

In brackets after ≈: the same amount, converted by molar mass. Activity calls are given as the source filed them. The calls are words filed in the database; no cut-off is given here.

Take `O=C1Cc2cccc(c2)OCC/C=C/CCOc2cccc(c2)CC(=O)Nc2nnc(s2)CCCCc2ccc(nn2)N1`: the Activity result in data set [1] is “Non-Toxic”; in data set [2], “Non-Toxic”; in [12], “Dose-Dependent Effect”; in [15], “Non-Toxic”. Further, the concentration for half-maximal inhibition (IC50) in [3] was 80 nM. In data set [4], the logD amounted to 3.13. Moreover, the solubility thermodynamic in data set [5] is 1.73 µg/mL (≈ 2.89 µM). Besides, in data set [6], the microsomal CLint at 10 µM was determined as 3.2 µL/min/mg. In [7], this compound gave a half-life of 6.3 h. In addition, the values for the Cmax in [8] and in [14] were 1030 ng/mL and 1630 nM, respectively. Besides, the exposure AUC(0-t) at 72 h in data set [9] worked out at 1630 ng·h/mL. The compound also yielded an area under the curve (AUC) in data set [10] of 6064 ng·h/mL. In [11], the bioavailability was found to be 9%. Moreover, the result in data set [13] and in [16] was Active. Moreover, the inhibition entry in data set [17] and in data set [18] was “Active” each time.

The values are drawn from ChEMBL document CHEMBL4831477, “Structure-Enabled Discovery of Novel Macrocyclic Inhibitors Targeting Glutaminase 1 Allosteric Binding Site” (J Med Chem, 2021).
